Results published in patent EP4603105A1, “PHARMACEUTICAL COMPOSITION CONTAINING CYCLIC COMPOUND HAVING SELECTIVE KRAS INHIBITORY EFFECT AGAINST HRAS AND NRAS” (CHUGAI SEIYAKU KABUSHIKI KAISHA, priority 2022, dated 2024).
Where a SMILES comes first, the peptide text is derived from it. Bridges are numbered along the chain shown (N, C = ends). [ ]: non-standard residue; d: D form. The star is where a group is joined. hPhe(3-Cl-4-CF3) = N[C@@H](CCc1ccc(C(F)(F)F)c(Cl)c1)C(=O)O; NPrPhe(4-CF3) = CCCN[C@@H](Cc1ccc(C(F)(F)F)cc1)C(=O)O; NMeGly(cPent) = CN[C@H](C(=O)O)C1CCCC1; NMeD = CN[C@@H](CC(=O)O)C(=O)O; NMeL = CN[C@@H](CC(C)C)C(=O)O; Morpholide = C1CN(*)CCO1; Ac5c = NC1(C(=O)O)CCCC1; Aze = O=C(O)[C@@H]1CCN1; Sar = CNCC(=O)O

What was measured:
[1] = target: GDP-bound NRAS wild-type protein (Homo sapiens, UniProt P01111); assay: Binding to NRAS by surface plasmon resonance (SPR), KD and KD ratio to KRAS
Summary of the method: (§1)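 Recombinant RAS proteins bearing a biotinylated Avi tag and loaded with GDP served as the captured ligand, recaptured fresh every cycle. Binding responses were referenced to an uncoated surface and a buffer-only blank cycle. Dissociation constants were obtained by 1:1 model fitting at 30°C.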

HRAS wild-type protein = HRAS wild-type protein (Homo sapiens, UniProt P01112); assay: Binding to HRAS by surface plasmon resonance (SPR), KD and KD ratio to KRAS
Summary of the method: as §1

[2] = target: GDP-bound KRAS wild-type protein (Homo sapiens, UniProt P01116); assay: Binding to KRAS by surface plasmon resonance (SPR), dissociation constant KD
Summary of the method: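 Affinity is measured by surface plasmon resonance at 30°C against captured, GDP-loaded RAS carrying a biotinylated Avi tag. Compounds are titrated by single-cycle kinetics, and KD comes from a 1:1 fit.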

[3] = tested on: human lung cancer strain NCI-H441; assay type: cell-based
Summary of the method: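 Signal came from […] measured per well once the reagent was added. Beforehand, cells were cultured at 37°C and 5% carbon dioxide on a compound series serially diluted in dimethyl sulfoxide.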

[4] = ratio of KD for GDP-bound NRAS wild-type protein to KD for KRAS
[5] = ratio of KD for HRAS wild-type protein to KD for KRAS
[6] = ratio of the KD value with respect to GDP-bound NRAS wild-type protein to the KD value with respect to KRAS
[7] = ratio of the KD value with respect to HRAS wild-type protein to the KD value with respect to KRAS
[8] = Single Cycle Kinetics, 1:1 binding model
[9] = ratio of KD value for GDP-bound NRAS wild-type protein to KD value for KRAS (SPR)
[10] = ratio of KD value for HRAS wild-type protein to KD value for KRAS (SPR)

Chain of GDP-bound KRAS wild-type protein (P01116 1-188 isoform P01116-2): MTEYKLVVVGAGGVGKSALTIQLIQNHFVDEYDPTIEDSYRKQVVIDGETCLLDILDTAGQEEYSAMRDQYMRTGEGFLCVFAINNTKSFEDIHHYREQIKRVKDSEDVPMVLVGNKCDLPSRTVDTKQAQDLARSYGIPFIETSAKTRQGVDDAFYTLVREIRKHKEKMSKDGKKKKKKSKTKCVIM
Chain of HRAS wild-type protein (P01112 whole entry): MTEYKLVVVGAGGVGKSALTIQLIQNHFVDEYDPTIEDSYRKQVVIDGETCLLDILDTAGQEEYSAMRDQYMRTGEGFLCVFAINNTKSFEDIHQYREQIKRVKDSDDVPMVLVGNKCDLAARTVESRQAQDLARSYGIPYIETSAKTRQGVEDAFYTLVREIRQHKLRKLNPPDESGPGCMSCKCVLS
Chain of GDP-bound NRAS wild-type protein (P01111 whole entry): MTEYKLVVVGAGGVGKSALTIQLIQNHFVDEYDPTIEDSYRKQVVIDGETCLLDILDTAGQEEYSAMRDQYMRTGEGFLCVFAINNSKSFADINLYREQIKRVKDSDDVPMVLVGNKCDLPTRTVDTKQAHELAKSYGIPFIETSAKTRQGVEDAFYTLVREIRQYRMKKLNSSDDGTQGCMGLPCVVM

Row | Kd ([2]; 1:1 binding model) | IC50 [3] | Kd ([2]; Single Cycle Kinetics) | Kd [2, 8] | Structure (SMILES) | NRAS /KRAS [1, 4] | HRAS /KRAS (HRAS wild-type protein; [5]) | NRAS /KRAS [1, 6] | HRAS /KRAS (HRAS wild-type protein; [7]) | NRAS /KRAS [1, 9] | HRAS /KRAS (HRAS wild-type protein; [10])
1 | 1.4 nM | 41.8 nM |  |  | CCO[C@@H]1C[C@H]2C(=O)NC3(CC(C)(C)C3)C(=O)N(C)[C@@H](C3CCCC3)C(=O)N(C)[C@H](C(=O)N(C)CC)CC(=O)N(C)[C@@H](CC(C)C)C(=O)N[C@@H]([C@@H](C)CC)C(=O)N(C)CC(=O)N(C)[C@H]3C/C=C\CCN(C3=O)[C@@H](Cc3ccc(C(F)F)cc3)C(=O)N(C)CC(=O)N[C@@H](CCc3cc(C)c(C(F)F)c(Cl)c3)C(=O)N2C1 [PP3146] | A (a compound having 10 or more and less than 20 is denoted as A) | A (a compound having 10 or more and less than 20 is denoted as A) |  |  |  | 
2 |  | 53.6 nM | 0.62 nM |  | CC[C@H](C)[C@@H]1NC(=O)[C@H](Cc2ccccc2)N(C)C(=O)C[C@@H](C(=O)N2CCOCC2)N(C)C(=O)[C@H](C2CCCC2)N(C)C(=O)C2(CCCC2)NC(=O)[C@@H]2CCCN2C(=O)[C@H](CCc2ccc(C(F)(F)F)c(Cl)c2)NC(=O)CN(C)C(=O)[C@H](Cc2ccc(F)cc2)N2CCCCC[C@@H](C2=O)N(C)C(=O)CN(C)C1=O [PP0961] | B (a compound having 3 or more and less than 10 is denoted as B) | B (a compound having 3 or more and less than 10 is denoted as B) |  |  |  | 
3 |  | 25.5 nM |  | 0.22 nM | CCO[C@@H]1C[C@H]2C(=O)NC3(CCC3)C(=O)N(C)[C@@H](C3CCCC3)C(=O)N(C)[C@H](C(=O)N(C)C)CC(=O)N(C)[C@@H](CCOC)C(=O)N[C@@H]([C@@H](C)CC)C(=O)N(C)CC(=O)N(C)[C@H]3CCCCCN(C3=O)[C@@H](Cc3ccc(C(F)(F)F)cc3)C(=O)N(C)CC(=O)N[C@@H](CCc3cc(F)c(C(F)(F)F)c(F)c3)C(=O)N2C1 [PP0675] |  |  | B (a compound having 3 or more and less than 10 is denoted as B) | B (a compound having 3 or more and less than 10 is denoted as B) |  | 
4 |  | 2.5 nM |  | 0.093 nM | CCCOC[C@H]1C(=O)N[C@@H]([C@@H](C)CC)C(=O)N(C)CC(=O)N(C)[C@H]2C/C=C\CCN(C2=O)[C@@H](Cc2ccc(C(F)(F)F)cc2)C(=O)N(C)CC(=O)N[C@@H](CCc2ccc(C(F)(F)F)c(OC)c2)C(=O)N2C[C@H](OCC)C[C@H]2C(=O)NC2(CCC2)C(=O)N(C)[C@@H](C2CCCC2)C(=O)N(C)[C@H](C(=O)N(C)CCC)CC(=O)N1C [PP2017] |  |  | A (a compound having 10 or more and less than 20 is denoted as A) | A (a compound having 10 or more and less than 20 is denoted as A) |  | 
5 |  | 20.5 nM |  | 0.34 nM | CCCOC[C@H]1C(=O)N[C@@H]([C@@H](C)CC)C(=O)N(C)CC(=O)N(C)[C@H]2C/C=C\CCN(C2=O)[C@@H](Cc2ccc(C)cc2)C(=O)N(C)CC(=O)N[C@@H](CCc2cc(F)c(C(F)(F)F)c(F)c2)C(=O)N2C[C@H](CCC)C[C@H]2C(=O)NC2(CC(C)(C)C2)C(=O)N(C)[C@@H](C2CCCC2)C(=O)N(C)[C@H](C(=O)N(C)C)CC(=O)N1C [PP2203] |  |  | A (a compound having 10 or more and less than 20 is denoted as A) | A (a compound having 10 or more and less than 20 is denoted as A) |  | 
6 |  | 15.9 nM |  | 0.2 nM | CCC[C@H]1C(=O)N[C@@H]([C@@H](C)CC)C(=O)N(C)CC(=O)N(C)[C@H]2C/C=C\CCN(C2=O)[C@@H](Cc2ccc(C)cc2)C(=O)N(C)CC(=O)N[C@@H](CCc2ccc(C(F)(F)F)c(Cl)c2)C(=O)N2C[C@H](C)C[C@H]2C(=O)NC2(CC(C)(C)C2)C(=O)N(C)[C@@H](C2CCCC2)C(=O)N(C)[C@H](C(=O)N(C)CC)CC(=O)N1C [PP1894] |  |  |  |  | A (a compound having 10 or more and less than 20 is denoted as A) | A (a compound having 10 or more and less than 20 is denoted as A)
7 | 0.85 nM | 15.4 nM |  |  | CCCN1C(=O)CN(C)C(=O)[C@@H]2CCN2C(=O)[C@H]([C@@H](C)CC)NC(=O)[C@H](CC(C)C)N(C)C(=O)C[C@@H](C(=O)N2CCOCC2)N(C)C(=O)[C@H](C2CCCC2)N(C)C(=O)C2(CCCC2)NC(=O)[C@@H]2CCCN2C(=O)[C@H](CCc2ccc(C(F)(F)F)c(Cl)c2)NC(=O)CN(C)C(=O)[C@@H]1Cc1ccc(C(F)(F)F)cc1 [PP0158] ([NMeL]I[Aze][Sar][NPrPhe(4-CF3)][Sar][hPhe(3-Cl-4-CF3)]P[Ac5c][NMeGly(cPent)][NMeD]-Morpholide; lactam N-11) | A (a compound having 10 or more and less than 20 is denoted as A) | B (a compound having 3 or more and less than 10 is denoted as B) |  |  |  | 
8 |  | 66.2 nM | 0.62 nM |  | CCO[C@@H]1C[C@H]2C(=O)NC3(CCC3)C(=O)N(C)[C@@H](C3CCCC3)C(=O)N(C)[C@H](C(=O)N(C)C)CC(=O)N(C)[C@@H](CC)C(=O)N[C@@H]([C@@H](C)CC)C(=O)N(C)CC(=O)N(C)[C@H]3CCCCCN(C3=O)[C@@H](Cc3ccc4ccsc4c3)C(=O)N(C)CC(=O)N[C@@H](CCc3cc(F)c(C(F)(F)F)c(F)c3)C(=O)N2C1 [PP0910] | B (a compound having 3 or more and less than 10 is denoted as B) | B (a compound having 3 or more and less than 10 is denoted as B) |  |  |  | 
9 |  | 25.7 nM |  | 0.091 nM | CC[C@H](C)[C@@H]1NC(=O)[C@H](CC2CC2)N(C)C(=O)C[C@@H](C(=O)N(C)C)N(C)C(=O)[C@H](C2CCCC2)N(C)C(=O)C2(CCC2)NC(=O)[C@@H]2C[C@H](C)CN2C(=O)[C@H](CCc2ccc(C(F)(F)F)c(OC)c2)NC(=O)CN(C)C(=O)[C@H](Cc2ccc(C)cc2)N2CC/C=C\C[C@@H](C2=O)N(C)C(=O)CN(C)C1=O [PP1861] |  |  |  |  | A (a compound having 10 or more and less than 20 is denoted as A) | B (a compound having 3 or more and less than 10 is denoted as B)
10 |  | 6.8 nM | 0.017 nM |  | CCO[C@@H]1C[C@H]2C(=O)NC3(CCC3)C(=O)N(C)[C@@H](C3CCCC3)C(=O)N(C)[C@H](C(=O)N(C)C)CC(=O)N(C)[C@@H](CC(C)C)C(=O)N[C@@H]([C@@H](C)CC)C(=O)N(C)CC(=O)N(C)[C@H]3C[C@@H](C)CCN(C3=O)[C@@H](Cc3ccc(C(F)(F)F)cc3)C(=O)N(C)CC(=O)N[C@@H](CCc3cc(F)c(C(F)(F)F)c(F)c3)C(=O)N2C1 [PP1018] | C (A compound having a KD ratio of 0.1 or more and less than 3 is denoted as C) | B (a compound having 3 or more and less than 10 is denoted as B) |  |  |  | 
11 |  | 35.3 nM | 0.46 nM |  | CCO[C@@H]1C[C@H]2C(=O)NC3(CCC3)C(=O)N(C)[C@@H](C3CCCC3)C(=O)N(C)[C@H](C(=O)N3CCOCC3)CC(=O)N(C)[C@@H](COC3CC3)C(=O)N[C@@H]([C@@H](C)CC)C(=O)N(C)CC(=O)N(C)[C@H]3CCCCCN(C3=O)[C@@H](Cc3ccc(C(F)(F)F)cc3)C(=O)N(C)CC(=O)N[C@@H](CCc3cc(F)c(C(F)(F)F)c(F)c3)C(=O)N2C1 [PP0852] | B (a compound having 3 or more and less than 10 is denoted as B) | B (a compound having 3 or more and less than 10 is denoted as B) |  |  |  | 
12 |  | 15.1 nM |  | 0.12 nM | CC[C@H](C)[C@@H]1NC(=O)[C@H](CC2CC2)N(C)C(=O)C[C@@H](C(=O)N(C)CC)N(C)C(=O)[C@H](C2CCCC2)N(C)C(=O)C2(CC(C)(C)C2)NC(=O)[C@@H]2C[C@H](C)CN2C(=O)[C@H](CCc2ccc(C(F)(F)F)c(OC)c2)NC(=O)CN(C)C(=O)[C@H](Cc2ccc(C)cc2)N2CC/C=C\C[C@@H](C2=O)N(C)C(=O)CN(C)C1=O [PP1899] |  |  | A (a compound having 10 or more and less than 20 is denoted as A) | B (a compound having 3 or more and less than 10 is denoted as B) |  | 
